Test results taken from patent publication US20220184091A1, “Methods of Treating Cancer with Chk1 Inhibitors” (Sierra Oncology, Inc., priority 2019, published 2022).
Read-outs that look alike come from different tables or passages of the source.

How the values were obtained:
[1] = Excretion of SRA737 in mice; format: in vivo, mouse; conditions: 24-hour collection
Procedure: (§1) The excretion of SRA737 has been studied in mice and rats administered SRA737 at either 5 mg/kg IV or 10 mg/kg orally. Urine and feces were collected for a 24-hour period after dosing. In mice, renal excretion of intact SRA737 was consistently low (less than 10% of dose) after both oral and IV administration. Following IV administration of SRA737, less than 8% of the dose was recovered as intact drug in the feces while after oral administration this figure was less than 3%. Excretion of intact SRA737 was lower in the rat than in the mouse with <1% of dose excreted renally over 24 hours and less than 1.5% of dose excreted into the feces over 24 hours.

[2] = Excretion of SRA737 in rats; format: in vivo; conditions: rat; over 24 hours
Procedure: as §1

[3] = tested on: RPP tumor; test: Flank RPP (SCLC) tumor growth in B6129F1 immunocompetent mice; format: in vivo, mouse; conditions: anti-PD-L1 300 μg 1-day-on/6-days-off
Procedure: Tumors were evaluated twice weekly for the duration of the study. Tumor volumes were measured on all mice three times per week and calculated (width^2×length×0.4) using manual calipers. Once the average tumor size was in the range of 120-150 mm^3, mice were randomized into dosing groups using stratified sampling by assigning three animals per group for short-term reverse-phase protein array analysis and long-term treatment. Dosing schedules and duration varied depending on the study. Mice were weighed three times per week for the duration of the study, and a decrease in body weight >15% was considered indicative of a toxic dose. The Student t-test was used to determine statistical significance between compound- and vehicle-treated groups.
[…] 15A.

[4] = SRA737 plasma and tumor concentrations in HT29 xenograft model; format: in vivo; conditions: mouse, oral
Procedure: For each dose, columns from left to right are concentrations in plasma at 6 hours, plasma at 24 hours, tumor at 6 hours, and tumor at 24 hours, respectively.
The effect of SRA737 on Gemcitabine induced Chk1 S296 autophosphorylation was assessed as described in Walton et al. (Oncotarget. 2016 Jan. 19; 7(3): 2329-2342), herein incorporated by reference for all it teaches. Briefly, mice bearing HT29 tumor xenografts were administered (i) vehicle control or (ii) gemcitabine (100 mg/kg in saline, IV) or ([…]) and gemcitabine (100 mg/kg) with SRA737 administered 24 hours following gemcitabine administration (n=3 per time point per treatment). […] Exposure in the tumor was greater than 10-fold higher than in plasma. The circulating plasma concentration at this 24-hour timepoint corresponded to a free drug concentration of approximately 6 nM (2 ng/mL) based on plasma protein binding in mice of 94%.

[5] = tested on: PD-L1; test: Western blot of total PD-L1 in SCLC cell lines; format: cell-based; conditions: all SCLC cell lines tested; 1 μM for 72 hours
Procedure: (§2) Western blot analysis was performed using SDS-PAGE followed by transfer to nitrocellulose membrane using the BioRad Gel system. Membranes were incubated in the following primary antibodies (1:1000) overnight: PD-L1 (CST), total and phospho- (S366) STING (CST), total and phospho- (S396) IRF3 (CST), phospho-YH2AX (CST) and Actin (Sigma). Secondary anti-rabbit, HRP-linked antibodies were purchased from Cell Signaling Biosciences and detected using the Chemidoc imaging system mage-captured with Image Studio Version 3.1 software.

[6] = tested on: SCLC cell lines; test: CellTiter-Glo cell viability assay, SCLC cell line panel; format: cell-based, human and murine; conditions: 96 h
Procedure: SCLC cell lines were incubated with dimethyl sulfoxide (vehicle control), SRA737 or Gemcitabine for 96 hours at nine distinct concentrations, with the maximum dose being 10 μM. A CellTiter-Glo luminescent cell viability assay (Promega) was performed after 96 hours of treatment as per the manufacturer's specifications. IC50 values were estimated using Drexplorer, as previously described (Tong P, Coombes K R, Johnson F M, Byers L A, Diao L, Liu D D, Lee J J, Heymach J V, Wang J. drexplorer: A tool to explore dose-response relationships and drug-drug interactions. Bioinformatics. 2015 May 15; 31(10):1692-4.)
To investigate the in vitro activity of SRA737, a panel of 51 SCLC cell lines, including one murine derived model, and a panel of NSCLC, pancreatic, colon and bladder cancer cell lines were screened.

[7] = tested on: CXCL10 and CCL5; test: qPCR of CXCL10 and CCL5 in MC38 tumors; format: in vivo, mouse
Source text: FIGS. 23A-D show the qPCR measurement of CXCL10 and CCL5 mRNA expression in MBT-2 (FIG. 23A and FIG. 23B) and MC38 (FIG. 23C and FIG. 23D) tumors resected after 7 or 14 days of treatment with SRA737 5/7 days. Data presented as mean±SD and p values by t-test * p<0.05, **p<0.01, ***p<0.001.
Real-time PCR was done using SYBR Select Master Mix (Life Technologies, cat #4472908) according to the manufacturer's protocol. Primers were purchased from Sigma Aldrich, Inc. Triplicate PCR reactions were run on ABI (7500 Fast Real Time PCR System). The comparative Ct method using the average 2ΔΔCT value for each set of triplicates was used, and the average of the biological replicates was calculated. Negative controls were included for every primer set, and GAPDH was used as the […].
The flank of immunocompetent mice was then treated with SRA737 monotherapy for 5-days-on/2-days-off for either one or two cycles and the expression of CCL5 and CXCL10 in extracted tumors were analyzed. […] The previously used dosing regimen of 5-days-on/2-days-off was modified to a schedule of 7-days-on/7-days-off for SRA737 treatment with or without co-treatment with anti-PD1 (Days 3, 7 and 11) based on the results of induction of chemokines secretion after 7 days.

[8] = tested on: STING pathway; test: Immunoblot of STING pathway proteins in resected RPP tumors; format: in vivo, mouse; conditions: RPP tumors resected at Day 21
Procedure: as §2

dose recovered as intact drug in the feces ([1]; IV administration): less than 8 % of dose | dose recovered as intact drug in the feces ([1]; oral administration): less than 3 % of dose | dose excreted into the feces [2]: less than 1.5 % of dose | dose excreted renally [2]: < 1 % of dose | concentration at 6 h ([4]; plasma, HT29 xenograft, Dose 12.5 mg/kg, read-out: Plasma (6 h)): 1.01 µM | concentration at 24 h ([4]; plasma, HT29 xenograft, Dose 12.5 mg/kg, read-out: Plasma (24 h)): 0.0777 µM | concentration at 6 h ([4]; plasma, HT29 xenograft, Dose 25 mg/kg, read-out: Plasma (6 h)): 2.52 µM | concentration at 24 h ([4]; plasma, HT29 xenograft, Dose 25 mg/kg, read-out: Plasma (24 h)): 0.893 µM | concentration at 6 h ([4]; plasma, HT29 xenograft, Dose 50 mg/kg, read-out: Plasma (6 h)): 3.96 µM | concentration at 24 h ([4]; plasma, HT29 xenograft, Dose 50 mg/kg, read-out: Plasma (24 h)): 0.512 µM | concentration at 6 h ([4]; plasma, HT29 xenograft, Dose 100 mg/kg, read-out: Plasma (6 h)): 5.84 µM | concentration at 24 h ([4]; plasma, HT29 xenograft, Dose 100 mg/kg, read-out: Plasma (24 h)): 1.67 µM | concentration at 24 h ([4]; plasma, mice, PK/PD benchmark): > 0.1 µM | concentration at 6 h ([4]; tumor, HT29 xenograft, Dose 3.125 mg/kg, read-out: Tumor (6 h)): 3.18 µM | concentration at 24 h ([4]; tumor, HT29 xenograft, Dose 3.125 mg/kg, read-out: Tumor (24 h)): 0.646 µM | concentration at 6 h ([4]; tumor, HT29 xenograft, Dose 6.25 mg/kg, read-out: Tumor (6 h)): 4.01 µM | concentration at 24 h ([4]; tumor, HT29 xenograft, Dose 6.25 mg/kg, read-out: Tumor (24 h)): 0.966 µM | concentration at 6 h ([4]; tumor, HT29 xenograft, Dose 12.5 mg/kg, read-out: Tumor (6 h)): 19 µM | concentration at 24 h ([4]; tumor, HT29 xenograft, Dose 12.5 mg/kg, read-out: Tumor (24 h)): 3.97 µM | concentration at 6 h ([4]; tumor, HT29 xenograft, Dose 25 mg/kg, read-out: Tumor (6 h)): 37.5 µM | concentration at 24 h ([4]; tumor, HT29 xenograft, Dose 25 mg/kg, read-out: Tumor (24 h)): 16.3 µM | concentration at 6 h ([4]; tumor, HT29 xenograft, Dose 50 mg/kg, read-out: Tumor (6 h)): 76.3 µM | concentration at 24 h ([4]; tumor, HT29 xenograft, Dose 50 mg/kg, read-out: Tumor (24 h)): 27.5 µM | concentration at 6 h ([4]; tumor, HT29 xenograft, Dose 100 mg/kg, read-out: Tumor (6 h)): 132 µM | concentration at 24 h ([4]; tumor, HT29 xenograft, Dose 100 mg/kg, read-out: Tumor (24 h)): 102 µM
Compound: N#Cc1cnc(Nc2cc(NCC3CNCCO3)c(C(F)(F)F)cn2)cn1 (stereo not drawn) [SRA737, 5-[[4-[[morpholin-2-yl]methylamino]-5-(trifluoromethyl)-2-pyridyl]amino]pyrazine-2-carbonitrile]
anti-tumor response (tumor growth) ([3]; SRA737 100 mg/kg 3-days-on/4-days-off or 5-days-on/2-days-off): significant reduction in tumor growth | anti-tumor effect (tumor volume) ([3]; LDG 40 mg/kg 1-day-on/6-days-off, SRA737 100 mg/kg 2-day-on/5-days-off): no significant anti-tumor effect | total PD-L1 levels [5]: significantly increased | IC50 ([6]; SCLC cell lines classified resistant (n=35)): > 5 µM | IC50 ([6]; SCLC cell lines classified sensitive (n=15)): < 5 µM | expression of CCL5 ([7]; after 7 days): modestly but not statistically significantly reduced | CXCL10 levels ([7]; after 14 days, p<0.05): significantly increased | STING pathway incl. pSTING_S366, pTBK1_S172, cGAS, pIRF3_S396 in tumors [8]: significant activation of the STING pathway
